Assay results: patent publication US12478601B2, “Dietary product devoid of at least two non essential amino acids” (CANCER RESEARCH TECHNOLOGY LIMITED, priority 2016, dated 2025)

Test system: MDA-MB-231 cells
Test: Cysteine starvation of MDA-MB-231 cells after AMD1 inhibitor pre-treatment
Assay type: cell-based
Conditions: 20 uM for 16 h before medium lacking cysteine
Method: FIG. 40. […] MDA-MB-231 cells were initially seeded in complete (DMEM) medium in 24-well plates. After 24 h, cells were treated with AMD1 inhibitor Sardomozide (20 uM) for 16 h or left untreated (Ctr). Cells were then washed with PBS and given medium lacking cysteine but containing all 19 other amino acids. Images (panel a) were captured using a light microscope, and cell counts (panel b) were performed using a CASY TT cell counter. Data are average of three wells. Error bars=STDEV.
Cells (4×10^4-1×10^5) were seeded in complete RPMI or DMEM medium in 24-well plates and allowed to adhere overnight. Cells were then washed with PBS and received assay medium supplemented with the stated amino acids/metabolites/drugs. Assay medium was formulated based on RPMI-1640 medium but lacking amino acids, which were added individually depending on the assay. Assay medium was also supplemented with additional vitamin B6 (20 uM), a co-factor for cysteine synthesis. Cells were counted (using Casy TT cell counter, Innovatis, Roche Applied Science) at the stated time-points, using a “time=0” plate to calculate relative cell number from time of medium change.

Compound: N=C(N)N/N=C1\CCc2c(C(=N)N)cccc21 [Sardomozide]
- protection from cell death in cysteine starvation: protects cells from acute sensitivity (i.e. cell death) to cysteine starvation
